Results as given in ChEMBL document CHEMBL4229332, “Novel multi-target azinesulfonamides of cyclic amine derivatives as potential antipsychotics with pro-social and pro-cognitive effects” (Eur J Med Chem, 2018).

Experiments:
[1] = target: Muscarinic acetylcholine receptor M1 (Homo sapiens) (UniProt P11229); assay: Displacement of [3H]-pirenzepine from human muscarinic acetylcholine M1 receptor expressed in CHO cells at 10^-6 M after 60 mins by scintillation counting method relative to control; format: cell-based
Sequence of Muscarinic acetylcholine receptor M1 (Homo sapiens) (P11229 whole entry): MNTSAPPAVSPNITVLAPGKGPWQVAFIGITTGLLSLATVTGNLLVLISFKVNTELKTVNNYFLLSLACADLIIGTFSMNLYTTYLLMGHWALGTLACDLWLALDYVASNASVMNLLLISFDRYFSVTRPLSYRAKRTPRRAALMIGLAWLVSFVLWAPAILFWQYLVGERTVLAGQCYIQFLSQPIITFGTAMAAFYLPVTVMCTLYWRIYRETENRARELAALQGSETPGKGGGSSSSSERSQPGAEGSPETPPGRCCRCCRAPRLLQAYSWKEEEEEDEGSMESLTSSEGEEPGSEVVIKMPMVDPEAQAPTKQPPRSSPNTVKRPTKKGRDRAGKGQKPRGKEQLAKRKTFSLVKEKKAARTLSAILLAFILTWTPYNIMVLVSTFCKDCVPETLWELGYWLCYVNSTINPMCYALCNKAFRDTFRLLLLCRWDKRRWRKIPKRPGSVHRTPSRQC

[2] = target: T1, 5-hydroxytryptamine receptor 1A (Homo sapiens, UniProt P08908); assay: Partial agonist activity at human 5-HT1AR expressed in CHO-K1 cells assessed as increase in cAMP accumulation by chemiluminescence-based assay; format: functional, cell-based
T1 sequence (P08908 whole entry): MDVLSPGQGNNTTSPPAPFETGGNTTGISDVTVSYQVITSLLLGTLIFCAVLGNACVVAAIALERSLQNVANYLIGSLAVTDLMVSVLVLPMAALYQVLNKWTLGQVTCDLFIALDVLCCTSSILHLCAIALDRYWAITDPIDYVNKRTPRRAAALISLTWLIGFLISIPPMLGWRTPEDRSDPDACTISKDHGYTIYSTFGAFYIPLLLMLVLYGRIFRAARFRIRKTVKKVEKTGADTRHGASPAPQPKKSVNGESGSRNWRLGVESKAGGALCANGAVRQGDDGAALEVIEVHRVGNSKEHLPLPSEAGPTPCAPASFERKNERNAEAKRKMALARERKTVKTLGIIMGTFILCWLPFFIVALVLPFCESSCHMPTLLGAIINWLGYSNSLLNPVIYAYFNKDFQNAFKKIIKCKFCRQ

[3] = target: 5-hydroxytryptamine receptor 2C (Homo sapiens) (UniProt P28335); assay: Displacement of [3H]mesulergine from human 5-HT2C receptor expressed in CHO cells at 10^-6 M after 120 mins by scintillation counting analysis relative to control; format: cell-based
Sequence of 5-hydroxytryptamine receptor 2C (Homo sapiens) (P28335 whole entry): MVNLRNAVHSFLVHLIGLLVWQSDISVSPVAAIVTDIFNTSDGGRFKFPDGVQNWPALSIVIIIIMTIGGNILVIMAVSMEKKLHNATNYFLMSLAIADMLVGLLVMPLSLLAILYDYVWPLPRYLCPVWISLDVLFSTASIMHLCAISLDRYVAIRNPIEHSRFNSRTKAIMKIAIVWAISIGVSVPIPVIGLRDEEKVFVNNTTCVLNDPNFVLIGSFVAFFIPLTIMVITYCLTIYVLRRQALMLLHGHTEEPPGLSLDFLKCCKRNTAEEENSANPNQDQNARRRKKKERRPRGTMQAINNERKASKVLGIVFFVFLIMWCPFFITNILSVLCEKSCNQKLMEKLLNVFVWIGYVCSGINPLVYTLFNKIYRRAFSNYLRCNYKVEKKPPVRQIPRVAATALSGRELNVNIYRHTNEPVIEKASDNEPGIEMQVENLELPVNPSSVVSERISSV

Rattus norvegicus [4] = assay: Toxicity in Wistar rat assessed as increase in prolactin level at 1 to 3 mg/kg, po after 60 mins by ELISA; format: organism-based; conditions: in vivo, 1 h
[5] = target: D(2) dopamine receptor (Homo sapiens) (UniProt P14416); assay: Antagonist activity at human D2LR expressed in CHO-K1 cells assessed as inhibition of dopamine-induced cAMP accumulation at 10^-6 M by chemiluminescence-based assay; format: functional, cell-based
Sequence of D(2) dopamine receptor (Homo sapiens) (P14416 whole entry): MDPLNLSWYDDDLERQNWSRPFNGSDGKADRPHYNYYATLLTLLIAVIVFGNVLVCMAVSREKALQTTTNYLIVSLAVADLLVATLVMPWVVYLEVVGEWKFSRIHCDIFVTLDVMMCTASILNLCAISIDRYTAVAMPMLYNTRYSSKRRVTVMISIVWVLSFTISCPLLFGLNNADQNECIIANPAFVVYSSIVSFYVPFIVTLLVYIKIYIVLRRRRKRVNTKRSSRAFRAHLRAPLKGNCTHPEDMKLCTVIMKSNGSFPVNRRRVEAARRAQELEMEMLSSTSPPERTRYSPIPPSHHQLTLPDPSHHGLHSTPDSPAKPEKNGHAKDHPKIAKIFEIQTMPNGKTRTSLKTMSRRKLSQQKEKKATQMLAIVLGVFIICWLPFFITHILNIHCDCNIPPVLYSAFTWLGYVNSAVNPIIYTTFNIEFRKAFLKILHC

[6] = Cmax in Wistar rat plasma at 9 mg/kg per os administered as a single dose by LC-MS/MS analysis; format: ADME, organism-based; design: dose 9 mg/kg; conditions: po
[7] = target: 5-hydroxytryptamine receptor 2B (Homo sapiens) (UniProt P41595); assay: Displacement of [3H]mesulergine from human 5-HT2B receptor expressed in CHO cells at 10^-6 M after 60 mins by scintillation counting analysis relative to control; format: cell-based
Sequence of 5-hydroxytryptamine receptor 2B (Homo sapiens) (P41595 whole entry): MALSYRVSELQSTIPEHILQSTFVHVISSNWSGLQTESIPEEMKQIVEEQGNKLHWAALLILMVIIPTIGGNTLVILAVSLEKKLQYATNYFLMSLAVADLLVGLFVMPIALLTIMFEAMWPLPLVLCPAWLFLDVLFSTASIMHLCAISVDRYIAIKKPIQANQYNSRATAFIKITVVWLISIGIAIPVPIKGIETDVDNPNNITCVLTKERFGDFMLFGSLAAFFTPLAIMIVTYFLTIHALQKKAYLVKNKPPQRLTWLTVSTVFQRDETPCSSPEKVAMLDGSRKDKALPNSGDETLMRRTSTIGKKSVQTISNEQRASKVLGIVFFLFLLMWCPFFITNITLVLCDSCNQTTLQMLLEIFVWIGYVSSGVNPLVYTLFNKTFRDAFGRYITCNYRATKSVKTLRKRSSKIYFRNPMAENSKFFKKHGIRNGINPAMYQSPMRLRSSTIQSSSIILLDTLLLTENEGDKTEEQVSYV

Rattus norvegicus [8] = assay: Toxicity in Sprague-Dawley rat assessed as induction of catalepsy at 30 mg/kg, ip measured every 30 mins up to 240 mins by bar test; format: organism-based; conditions: in vivo
[9] = target: T2, 5-hydroxytryptamine receptor 2A (Homo sapiens, UniProt P28223); assay: Antagonist activity at human 5-HT2AR expressed in HEK293 cells assessed as inhibition of serotonin-induced IP1 accumulation after 60 mins by HTRF method; format: functional, cell-based
T2 sequence (P28223 whole entry): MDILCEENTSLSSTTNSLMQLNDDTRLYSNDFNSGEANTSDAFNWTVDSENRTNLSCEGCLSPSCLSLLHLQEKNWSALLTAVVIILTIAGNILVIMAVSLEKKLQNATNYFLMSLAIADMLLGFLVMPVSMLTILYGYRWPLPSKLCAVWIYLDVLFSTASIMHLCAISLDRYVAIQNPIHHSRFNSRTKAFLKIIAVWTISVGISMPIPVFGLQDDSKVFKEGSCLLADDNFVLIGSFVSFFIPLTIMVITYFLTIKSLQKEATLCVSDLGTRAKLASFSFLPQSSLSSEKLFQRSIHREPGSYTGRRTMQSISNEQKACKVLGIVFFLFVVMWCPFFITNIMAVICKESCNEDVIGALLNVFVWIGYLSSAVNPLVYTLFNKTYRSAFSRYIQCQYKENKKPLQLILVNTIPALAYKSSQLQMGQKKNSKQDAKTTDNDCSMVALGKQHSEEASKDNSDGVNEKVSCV

[10] = target: T3, 5-hydroxytryptamine receptor 1A (Homo sapiens) (UniProt P08908); assay: Displacement of [3H]-WAY100635 from recombinant full-length human 5-HT1AR expressed in CHO cells at 10^-6 M after 120 mins by scintillation counting method relative to control; format: cell-based
T3 sequence (whole entry): T1 sequence (P08908 whole entry)

[11] = target: D(3) dopamine receptor (Homo sapiens) (UniProt P35462); assay: Antagonist activity at human D3R expressed in CHO-K1 cells assessed as inhibition of […] cAMP accumulation at 10^-6 M by chemiluminescence-based assay; format: functional, cell-based
Sequence of D(3) dopamine receptor (Homo sapiens) (P35462 whole entry): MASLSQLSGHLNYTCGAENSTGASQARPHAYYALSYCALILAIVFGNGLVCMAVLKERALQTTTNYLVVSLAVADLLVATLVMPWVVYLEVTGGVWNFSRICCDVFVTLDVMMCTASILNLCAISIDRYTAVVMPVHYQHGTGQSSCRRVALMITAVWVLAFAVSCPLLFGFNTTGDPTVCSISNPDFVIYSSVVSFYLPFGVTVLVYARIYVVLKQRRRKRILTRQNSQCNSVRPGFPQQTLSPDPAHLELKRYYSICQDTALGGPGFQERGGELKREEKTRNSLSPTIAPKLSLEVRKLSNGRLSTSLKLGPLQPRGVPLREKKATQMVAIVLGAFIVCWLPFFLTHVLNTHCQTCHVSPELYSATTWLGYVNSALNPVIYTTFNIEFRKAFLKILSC

[12] = target: 5-hydroxytryptamine receptor 3A (Homo sapiens) (UniProt P46098); assay: Displacement of [3H]BRL 43694 from human 5-HT3 receptor expressed in CHO cells at 10^-6 M after 120 mins by scintillation counting analysis relative to control; format: cell-based
Sequence of 5-hydroxytryptamine receptor 3A (Homo sapiens) (P46098 whole entry): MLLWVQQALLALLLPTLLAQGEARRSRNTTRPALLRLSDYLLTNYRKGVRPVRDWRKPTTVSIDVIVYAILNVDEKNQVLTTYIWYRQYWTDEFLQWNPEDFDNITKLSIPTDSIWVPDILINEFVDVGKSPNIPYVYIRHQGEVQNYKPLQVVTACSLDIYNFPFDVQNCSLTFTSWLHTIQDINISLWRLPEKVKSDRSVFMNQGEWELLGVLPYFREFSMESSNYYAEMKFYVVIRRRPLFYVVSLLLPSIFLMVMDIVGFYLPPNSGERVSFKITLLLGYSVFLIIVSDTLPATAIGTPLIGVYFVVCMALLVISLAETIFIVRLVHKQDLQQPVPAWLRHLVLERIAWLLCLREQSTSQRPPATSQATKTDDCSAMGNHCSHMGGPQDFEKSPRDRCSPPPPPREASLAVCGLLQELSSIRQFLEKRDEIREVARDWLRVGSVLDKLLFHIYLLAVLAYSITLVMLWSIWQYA

[13] = target: T3, 5-hydroxytryptamine receptor 1A (Homo sapiens); assay: Partial agonist activity at human 5-HT1AR expressed in CHO-K1 cells assessed as increase in calcium flux by fluorimetric method; format: functional, cell-based
[14] = target: T2, 5-hydroxytryptamine receptor 2A; assay: Displacement of [3H]ketanserin from human recombinant 5-HT2A receptor at 10^-6 M after 60 mins by scintillation counting analysis relative to control
[15] = target: T4, 5-hydroxytryptamine receptor 7 (Homo sapiens, UniProt P34969); assay: Displacement of [3H]LSD from recombinant human 5-HT7R after 120 mins by scintillation counting method
T4 sequence (P34969 whole entry): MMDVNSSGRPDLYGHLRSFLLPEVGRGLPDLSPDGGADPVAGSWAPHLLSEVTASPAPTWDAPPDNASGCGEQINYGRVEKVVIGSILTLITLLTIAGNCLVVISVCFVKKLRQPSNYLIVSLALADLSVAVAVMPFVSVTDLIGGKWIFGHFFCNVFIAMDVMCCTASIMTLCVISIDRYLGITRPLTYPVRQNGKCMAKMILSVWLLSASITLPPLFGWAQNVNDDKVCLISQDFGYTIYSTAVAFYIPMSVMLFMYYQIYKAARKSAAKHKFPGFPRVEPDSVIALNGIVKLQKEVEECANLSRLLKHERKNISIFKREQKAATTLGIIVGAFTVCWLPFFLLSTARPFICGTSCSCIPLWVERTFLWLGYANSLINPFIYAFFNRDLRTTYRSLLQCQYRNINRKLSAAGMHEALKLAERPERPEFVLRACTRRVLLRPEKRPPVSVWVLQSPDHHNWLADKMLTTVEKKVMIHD

[16] = target: T2, 5-hydroxytryptamine receptor 2A; assay: Antagonist activity at human 5-HT2AR expressed in HEK293 cells assessed as inhibition of serotonin-induced IP1 accumulation by chemiluminescence-based assay; format: functional, cell-based
[17] = target: T2, 5-hydroxytryptamine receptor 2A; assay: Antagonist activity at human 5-HT2AR expressed in HEK293 cells assessed as inhibition of serotonin-induced IP1 accumulation at 10^-6 M by chemiluminescence-based assay; format: functional, cell-based
[18] = target: D(2) dopamine receptor (Homo sapiens) (UniProt P14416); assay: Antagonist activity at human D2LR expressed in CHO-K1 cells assessed as inhibition of dopamine-induced cAMP accumulation by chemiluminescence-based assay; format: functional, cell-based
[19] = target: 5-hydroxytryptamine receptor 1B (Cricetulus griseus) (UniProt P46636); assay: Antagonist activity at 5-HT1BR in CHO cells assessed as inhibition of serotonin-induced response; format: functional, cell-based
Sequence of 5-hydroxytryptamine receptor 1B (Cricetulus griseus) (P46636 whole entry): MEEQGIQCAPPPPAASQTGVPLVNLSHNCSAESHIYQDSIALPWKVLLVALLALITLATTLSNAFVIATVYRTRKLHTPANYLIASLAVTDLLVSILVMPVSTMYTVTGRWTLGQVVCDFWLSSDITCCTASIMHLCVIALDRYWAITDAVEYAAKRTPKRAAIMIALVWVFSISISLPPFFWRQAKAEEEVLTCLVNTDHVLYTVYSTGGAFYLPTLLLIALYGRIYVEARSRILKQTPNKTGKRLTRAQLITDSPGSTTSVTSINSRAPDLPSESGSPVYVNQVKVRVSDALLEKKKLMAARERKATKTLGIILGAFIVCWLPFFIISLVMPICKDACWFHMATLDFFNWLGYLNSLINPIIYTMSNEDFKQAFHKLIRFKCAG

[20] = target: T4, 5-hydroxytryptamine receptor 7; assay: Antagonist activity at human 5-HT7R expressed in human DLD1 cells assessed as inhibition of serotonin-induced cAMP accumulation by chemiluminescence-based assay; format: functional, cell-based
[21] = target: T4, 5-hydroxytryptamine receptor 7; assay: Antagonist activity at human 5-HT7R expressed in human DLD1 cells assessed as inhibition of serotonin-induced cAMP accumulation at 10^-6 M by chemiluminescence-based assay; format: functional, cell-based
[22] = Tmax in Wistar rat brain at 9 mg/kg per os administered as a single dose by LC-MS/MS analysis; format: ADME, organism-based; conditions: po
[23] = target: D(3) dopamine receptor (Homo sapiens) (UniProt P35462); assay: Displacement of [3H]-methyl-spiperone from human dopamine D3 receptor expressed in CHO cells at 10^-6 M after 60 mins by scintillation counting method relative to control; format: cell-based
[24] = target: T5, 5-hydroxytryptamine receptor 6 (Homo sapiens, UniProt P50406); assay: Displacement of [3H]LSD from human recombinant 5-HT6 receptor at 10^-6 M after 120 mins by scintillation counting analysis relative to control
T5 sequence (P50406 whole entry): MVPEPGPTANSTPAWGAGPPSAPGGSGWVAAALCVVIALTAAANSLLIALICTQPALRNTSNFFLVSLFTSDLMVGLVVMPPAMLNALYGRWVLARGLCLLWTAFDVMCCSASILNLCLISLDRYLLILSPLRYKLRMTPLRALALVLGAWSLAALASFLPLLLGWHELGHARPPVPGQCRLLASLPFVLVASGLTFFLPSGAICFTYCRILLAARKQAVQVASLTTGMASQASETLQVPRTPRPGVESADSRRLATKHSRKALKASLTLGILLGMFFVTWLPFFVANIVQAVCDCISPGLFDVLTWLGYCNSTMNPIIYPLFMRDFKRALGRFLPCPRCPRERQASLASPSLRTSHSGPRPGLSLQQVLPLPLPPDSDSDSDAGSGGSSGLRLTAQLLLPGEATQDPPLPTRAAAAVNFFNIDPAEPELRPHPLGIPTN

[25] = target: T5, 5-hydroxytryptamine receptor 6; assay: biochemical
Description: Displacement of [3H]-LSD from human 5-HT6R expressed in HEK293 cell membranes after 1 hr at 37 degC by microbeta counting method

[26] = target: T5, 5-hydroxytryptamine receptor 6; assay: Antagonist activity at human 5-HT6R expressed in CHO-K1 cells assessed as inhibition of serotonin-induced cAMP accumulation at 10^-6 M after 30 mins by chemiluminescence-based assay; format: functional, cell-based
[27] = target: T2, 5-hydroxytryptamine receptor 2A; assay: Antagonist activity at human 5-HT2AR expressed in HEK293 cells assessed as inhibition of serotonin-induced calcium flux after 30 mins by HTRF method; format: functional, cell-based
Cavia porcellus = assay: Cardiotoxicity in guinea pig assessed as QT prolongation at 10 mg/kg, ip; format: toxicity, organism-based; conditions: in vivo
[28] = target: T3, 5-hydroxytryptamine receptor 1A (Homo sapiens); assay: Antagonist activity at human 5-HT1AR expressed in mouse BA/F3 cells assessed as inhibition of serotonin-induced calcium flux by fluorimetric method; format: functional, cell-based
[29] = target: T4, 5-hydroxytryptamine receptor 7; assay: Antagonist activity at human 5-HT7R expressed in CHO-K1 cells assessed as inhibition of serotonin-induced cAMP accumulation at 10^-6 M after 30 mins by chemiluminescence-based assay; format: functional, cell-based
[30] = target: D(3) dopamine receptor (Homo sapiens) (UniProt P35462); assay: Antagonist activity at human D3R expressed in CHO-K1 cells assessed as inhibition of dopamine induced cAMP accumulation after 30 mins by HTRF method; format: functional, cell-based

For `O=S(=O)(c1cncc2ccccc12)N1CCC[C@H]1CCN1CCN(c2cccc3sccc23)CC1`, the inhibition [1] was 6%, the EC50 [2] was 28.3 nM and the inhibition [3] was 80%. The Activity (Rattus norvegicus [4]) was “Non-Toxic”, the inhibition [5] was 92% and the Cmax [6] was 54 nM. For the same compound, the inhibition [7] was 100%, the Activity (Rattus norvegicus [8]) was “Non-Toxic” and the Kb [9] was 2.3 nM. It also gave an inhibition [10] of 100%, an inhibition [11] of 73% and an inhibition [12] of 15%. It also gave a Kb [13] of 28.3 nM, an inhibition [14] of 100% and a Ki [15] of 19 nM. For the same compound, the Kb [16] was 2.3 nM, the inhibition [17] was 100% and the Kb [18] was 3 nM. The Kb [19] was 210 nM, the Kb [20] was 3.4 nM and the inhibition [21] was 94%. It also gave a Tmax [22] of 1 h, an inhibition [23] of 98% and an inhibition [24] of 23%.

Work on `O=S(=O)(c1cncc2ccccc12)N1CCC[C@H]1CCN1CCN(c2nsc3ccccc23)CC1` yielded a Ki [25] of 313 nM, an inhibition [26] of 23% and a Kb [27] of 2 nM. The Activity (Cavia porcellus) was “Non-Toxic”, the Kb [28] was 11 nM and the inhibition [29] was 100%. For the same compound, the Kb [30] was 8.6 nM.
